Assay [1] deals with E. coli O157:H7 strain NCTC 12900. It counts as cell-based, Escherichia coli O157:H7. The conditions noted are these: for effect on viability of single compounds (FIG. 7A): citrate 50 mM or esculetin 7.5 mM alone; for dose dependence of inactivation (FIG. 1): L-lactate 50-200 mM, D-lactate 100-200 mM; for effect on viability of single compounds (FIG. 6A-C): L-lactate 50 mM or coumarin 7.5 mM alone.

The test system is the same in assay [2]. Put plainly: Growth inhibition monitored by spectrophotometer (650 nm). It counts as cell-based, Escherichia coli O157:H7. To be noted: 37° C.; for growth compared to the control (FIG. 13A): 12.5 mM L-lactate, 1.25 mM esculetin; for growth compared to the control (FIG. 13B): 0.625 mM Coumarin, 18 mM L-lactate.
The test system of assay [3] is Listeria monocytogenes NCTC 11994. Nature of the assay: Viability (killing) of L. monocytogenes treated with L-lactate and Coumarin. It counts as cell-based.
Assay [4] has as its system 8 E. coli O157:H7 strains and 8 non-O157:H7 E. coli strains. In kind it is cell-based.
Assay [5] has as its system S. aureus. Put plainly: Growth inhibition monitored by spectrophotometer (650 nm). In kind it is cell-based, Staphylococcus aureus. To be noted: Coumarin 1.25 mM, L-lactate 5 mM.
Assay [6] deals with L. monocytogenes. The description is as above. It counts as cell-based, Listeria monocytogenes. To be noted: 1.25 mM Coumarin; L-lactate concentration not given.
In assay [7] the test system is methicillin-resistant Staphylococcus aureus (MRSA) strain NCTC 10442. Put plainly: Viability (killing) of MRSA treated with L-lactate and Coumarin. In kind it is cell-based.
Assay [8] deals with Salmonella enteritidis NCTC 4444. Nature of the assay: Viability (killing) of S. enteritidis treated with L-lactate and Coumarin. In kind it is cell-based.
In assay [9] the test system is S. enteritidis. Put plainly: Growth inhibition monitored by spectrophotometer (650 nm). It counts as cell-based, Salmonella enteritidis. To be noted: Coumarin 2 mM; L-lactate concentration not given.

In the case of `O=C(O)CC(O)(CC(=O)O)C(=O)O` [citrate], the “effect on viability of single compounds (FIG. 7A)” value in assay [1] (pH 3.8) is listed as “neither citrate (50 mM) nor esculetin (7.5 mM) when used individually affected the viability”.

Turning to `O=c1ccc2cc(O)c(O)cc2o1` [esculetin], in assay [1] (pH 3.8), the “effect on viability of single compounds (FIG. 7A)” value was “neither citrate (50 mM) nor esculetin (7.5 mM) when used individually affected the viability”. For the same compound, in [2], the “growth compared to the control (FIG. 13A)” value was “caused a small reduction in the growth”.

With `C[C@@H](O)C(=O)O` [D-lactate, reference compound], the “dose dependence of inactivation (FIG. 1)” value in assay [1] (pH 3.8, 37° C.) is listed as “dose-dependent”.

`COc1cc2ccc(=O)oc2cc1O` [scopoletin]: in [1] (37° C., pH 3.8), the “effect on viability of single compounds (FIG. 6A-C)” value (from here on “effect on viability … (FIG. 6A-C)”) is given as “neither L-lactate (50 mM) nor scopoletin (7.5 mM) on their own affected the viability”.

On to `O=C(O)c1ccccc1` [benzoate], for which the “reduction in numbers / viability (FIG. 7A, 7B)” value in assay [1] (citrate 50 mM, benzoate 25 mM, esculetin 7.5 mM, 8 hours, pH 3.8) is on record as “approximately 4 log10 units”.

In the case of L-lactate, in assay [1] (100 mM each, pH 3.8, 37° C.), the “antimicrobial effect, L-lactate versus D-lactate (FIG. 2)” value was “exerted a greater antimicrobial effect than 100 mM D-lactate”. For the same compound, the “effect on viability … (FIG. 6A-C)” value in assay [1] (37° C., pH 3.8) is “neither L-lactate (50 mM) nor scopoletin (7.5 mM) on their own affected the viability”. In addition, in assay [1] (L-lactate 2%, Coumarin 6.8 mM, 10 minutes), the “decrease in viability (FIG. 11A)” value is on record as “approximately 3 log10 units”. Also, the “effectiveness at reducing numbers, L-lactate versus D-lactate (FIG. 1)” value in assay [1] (L-lactate 50, 100, 150 or 200 mM, D-lactate 100, 150 or 200 mM, pH 3.8, 37° C.) was “more effective at reducing numbers of the E. coli O157:H7 strain NCTC 12900 than D-lactate at all concentrations measured”. Also, the “dose dependence of inactivation (FIG. 1)” value in [1] (pH 3.8, 37° C.) is “dose-dependent”. In addition, in assay [2], the “growth compared to the control (FIG. 13B)” value was “inhibited substantially” and the “growth compared to the control (FIG. 13A)” value is “caused a small reduction in the growth”. Also, the “reduction in viability (FIG. 8B)” value in assay [3] (L-lactate 50 mM alone, 8 hours, pH 3.8) is on record as “greater than 5 log10 units”. The “inactivation (percentage survival), L-lactate versus D-lactate (FIG. 3)” value in assay [4] (pH 3.8) is given as “much greater than that of D-lactate for all the E. coli strains tested”. For the same compound, in assay [5], the “growth (FIG. 13E)” value is reported as “inhibited”. Also, the “growth (FIG. 13D)” value in [6] is reported as “inhibited growth slightly”. Further, the “reduction in viability (FIG. 8C)” value in assay [7] (L-lactate 50 mM, Coumarin 10 mM, 8 hours, pH 3.8) is recorded as “greater than 3 log10 units”. In addition, in assay [7] (L-lactate 2%, Coumarin 6.8 mM, 60 minutes), the “reduction in viability (FIG. 11D)” value is given as “approximately 2 log10 units”.

For `O=c1ccc2ccc(O)cc2o1` [umbelliferone], the “effect on viability … (FIG. 6A-C)” value in assay [1] (37° C., pH 3.8) is recorded as “neither 7.5 mM Coumarin (FIG. 6B) nor 7.5 mM umbelliferone (FIG. 6C) affected viability”.

`O=c1ccc2ccccc2o1` [Coumarin, 1,2 benzopyrone]: the “effect on viability (FIG. 11A)” value in assay [1] (Coumarin 6.8 mM alone) is given as “had no effect on the viability”. In addition, the “effect on viability … (FIG. 6A-C)” value in assay [1] (37° C., pH 3.8) is recorded as “neither 7.5 mM Coumarin (FIG. 6B) nor 7.5 mM umbelliferone (FIG. 6C) affected viability”. Also, the “growth compared to the control (FIG. 13B)” value in assay [2] is recorded as “only slightly reduced the extent of growth”. Moreover, the “effect on viability (FIG. 11B)” value in assay [8] (Coumarin 6.8 mM alone) is “had no effect on the viability”. Also, in assay [8] (Coumarin 10 mM alone, pH 3.8), the “effect on viability (FIG. 8A)” value is on record as “did not affect the viability”. The “effect on viability (FIG. 11C)” value in assay [3] (Coumarin 6.8 mM alone) is given as “had no effect on the viability”. Further, the “effect on viability (FIG. 8B)” value in assay [3] (Coumarin 10 mM alone, pH 3.8) is recorded as “had no effect on viability”. Besides, the “survival (FIG. 10)” value in [4] was “had little effect on the survival”. Besides, in [9], the “growth (FIG. 13C)” value is reported as “inhibited the growth of S. enteritidis slightly”. For the same compound, the “growth (FIG. 13E)” value in assay [5] is listed as “inhibited”. Also, the “growth (FIG. 13D)” value in assay [6] is reported as “did not affect the growth of L. monocytogenes”. Besides, in assay [7] (Coumarin 6.8 mM alone), the “effect on viability (FIG. 11D)” value is “had no effect on the viability”.
